Assays:
[1] = amine bases used for salt release in IPA; cited from earlier work
[2] = Stability study of the isolated solid to air and light (HPLC profile); assay type: physicochemical
Method: The 3-amino-1-propanol mediated salt release of apomorphine was scaled to 10 g in IPA (10 vol), and in order to aid the mobility of the reaction, the addition of the 3-amino-1-propanol was performed at 40-45° C. […] The slurry was cooled and aged over 16 h at 18 to 23° C.
Samples of solids isolated from an IPA recrystallization of the free base, salt released via the 3-amino-1-propanol route were monitored by their color change and their HPLC profile. The HPLC profiles are described in Table 8.

[3] = Stability of the reaction mixture at 40-45° C. (HPLC profile); assay type: physicochemical; conditions: 40° C.
Method: The effect of adding ascorbic acid-6-palmitate on stability of the reaction mixture and the isolated solid was determined in a larger scale reaction (A0513-68). On a 10 g scale, ascorbic acid-6-palmitate (0.01 wt) was added to a flask with the apomorphine hydrochloride salt and IPA (10 vol). 3-amino-1-propanol (2.5 ml, 1.1 eq, 0.25 vol) was added at 40-45° C., and a slurry was present throughout. The slurry was stirred at 40-45° C. for 2 h; at this point 10% of the reaction mixture was removed for an extended stability study at 40-45° C. The remainder of the reaction was cooled and aged over 16 h to 18-23° C. The solid was filtered and washed with IPA (2×3 vol) and resulted a white solid (liquor was pale yellow). The solid was dried under a flow of nitrogen for 30 min. The yield was 7.03 g (79.8%, corrected for 18.3% w/w IPA, approximately 1 eq), 100% area by HPLC (Note: 10% of the reaction mixture was removed for the stability study, therefore this yield is at the expected approximately 90% level, and the combined mother liquor and washes contained 7.6% of theoretical yield by assay). In this material the ascorbic acid-6-palmitate and 3-amino-1-propanol in the product were below detectable levels by ^1H NMR analysis.
Stability of the reaction mixture was compared with and without ascorbic acid-6-palmitate. Each reaction was held at 40-45° C. and both the color and the HPLC profile monitored. HPLC purity profiles are shown on Table 6.

[4] = Stability of the reaction mixture at reflux in IPA with/without ascorbic acid-6-palmitate (HPLC); assay type: physicochemical
Method: In this case, the base was added under reflux and the procedure compared with and without ascorbic acid-6-palmitate as an antioxidant (Table 7).

[5] = isolated stability to air and light (2 days)
[6] = isolated stability to air and light (5 days)
[7] = isolated stability to air and light (17 days)
[8] = from reaction containing asc, stability of solid in air and light (5 days)
[9] = from reaction containing asc, stability of solid in air and light (14 days)
[10] = isolated from reaction containing asc (1 day)
[11] = ascorbic acid-6-palmitate, 24 h
[12] = ascorbic acid-6-palmitate, 48 h
[13] = ascorbic acid-6-palmitate, 120 h
[14] = no ascorbic acid-6-palmitate, solution at reflux
[15] = no ascorbic acid-6-palmitate, liquors
[16] = no ascorbic acid-6-palmitate, isolated solid
[17] = with ascorbic acid-6-palmitate, liquors

Structure (SMILES): NCCCO [3-amino-1-propanol]
- pKa [1]: 10.23

Structure (SMILES): CC(C)O.CN1CCc2cccc3c2[C@H]1Cc1ccc(O)c(O)c1-3 [A0513-64-05, apomorphine free base mono-IPA solvate]
- % area: RRT 1.00 ([2]; isolated solid, no ascorbic acid-6-palmitate, output): 100.00 % area
- % area: RRT 1.00 [2, 5]: 99.98 % area
- % area: RRT 1.71 [2, 5]: 0.02 % area
- % area: RRT 1.00 [2, 6]: 99.95 % area
- % area: RRT 1.71 [2, 6]: 0.03 % area
- % area: RRT 1.76 [2, 6]: 0.02 % area
- % area: RRT 0.41 [2, 7]: 0.03 % area
- % area: RRT 1.00 [2, 7]: 99.92 % area
- % area: RRT 1.71 [2, 7]: 0.02 % area
- % area: RRT 1.76 [2, 7]: 0.03 % area

Structure (SMILES): CC(C)O.CN1CCc2cccc3c2[C@H]1Cc1ccc(O)c(O)c1-3 [A0513-68-01, apomorphine free base mono-IPA solvate]
- % area: RRT 1.00 [2, 8]: 99.97 % area
- % area: RRT 1.71 [2, 8]: 0.03 % area
- % area: RRT 0.41 [2, 9]: 0.01 % area
- % area: RRT 1.00 [2, 9]: 99.92 % area
- % area: RRT 1.71 [2, 9]: 0.03 % area
- % area: RRT 1.76 [2, 9]: 0.02 % area
- % area: RRT 2.02 [2, 9]: 0.02 % area
- % area: RRT 1.00 [2, 10]: 99.98 % area
- % area: RRT 1.71 [2, 10]: 0.02 % area

Structure (SMILES): CN1CCc2cccc3c2C1Cc1ccc(O)c(O)c1-3 (centres unmarked) [A0513-68A-03]
- % area: RRT 1.00 [3, 11]: 99.93 % area
- % area: RRT 1.71 [3, 11]: 0.05 % area
- % area: RRT 1.76 [3, 11]: 0.03 % area
- % area: RRT 1.00 [3, 12]: 99.96 % area
- % area: RRT 1.71 [3, 12]: 0.04 % area
- % area: RRT 1.00 [3, 13]: 99.86 % area
- % area: RRT 1.25 [3, 13]: 0.04 % area
- % area: RRT 1.71 [3, 13]: 0.06 % area
- % area: RRT 1.76 [3, 13]: 0.04 % area

Structure (SMILES): CN1CCc2cccc3c2C1Cc1ccc(O)c(O)c1-3 (centres unmarked) [A0513-72-01]
- % area: RRT 0.74 ([3]; poor purging, 24 h): 0.22 % area
- % area: RRT 1.00 ([3]; poor purging, 24 h): 98.18 % area
- % area: RRT 1.09 ([3]; poor purging, 24 h): 0.13 % area
- % area: RRT 1.22 ([3]; poor purging, 24 h): 0.44 % area
- % area: RRT 1.25 ([3]; poor purging, 24 h): 0.10 % area
- % area: RRT 1.37 ([3]; poor purging, 24 h): 0.15 % area
- % area: RRT 1.50 ([3]; poor purging, 24 h): 0.07 % area
- % area: RRT 0.74 ([3]; poor purging, 48 h): 0.10 % area
- % area: RRT 1.00 ([3]; poor purging, 48 h): 94.66 % area
- % area: RRT 1.09 ([3]; poor purging, 48 h): 2.32 % area
- % area: RRT 1.22 ([3]; poor purging, 48 h): 0.42 % area
- % area: RRT 1.25 ([3]; poor purging, 48 h): 1.46 % area
- % area: RRT 1.37 ([3]; poor purging, 48 h): 0.16 % area
- % area: RRT 1.50 ([3]; poor purging, 48 h): 0.10 % area

Structure (SMILES): CN1CCc2cccc3c2C1Cc1ccc(O)c(O)c1-3 (centres unmarked) [A0513-76-01]
- % area: RRT 1.00 ([3]; effective purging, 24 h): 99.90 % area
- % area: RRT 1.71 ([3]; effective purging, 24 h): 0.06 % area
- % area: RRT 1.76 ([3]; effective purging, 24 h): 0.04 % area
- % area: RRT 1.00 ([3]; effective purging, 96 h): 99.90 % area
- % area: RRT 1.71 ([3]; effective purging, 96 h): 0.06 % area
- % area: RRT 1.76 ([3]; effective purging, 96 h): 0.04 % area

Structure (SMILES): CN1CCc2cccc3c2C1Cc1ccc(O)c(O)c1-3 (centres unmarked) [A0513-94-01]
- % area: RRT 1.00 [4, 14]: 99.56 % area
- % area: RRT 1.09 [4, 14]: 0.05 % area
- % area: RRT 1.25 [4, 14]: 0.06 % area
- % area: RRT 1.71 [4, 14]: 0.06 % area
- % area: RRT 1.76 [4, 14]: 0.04 % area

Structure (SMILES): CN1CCc2cccc3c2C1Cc1ccc(O)c(O)c1-3 (centres unmarked) [A0513-94-02]
- % area: RRT 1.00 [4, 15]: 92.99 % area
- % area: RRT 1.09 [4, 15]: 1.79 % area
- % area: RRT 1.25 [4, 15]: 0.57 % area
- % area: RRT 1.29 [4, 15]: 1.20 % area
- % area: RRT 1.50 [4, 15]: 0.22 % area
- % area: RRT 1.71 [4, 15]: 0.34 % area
- % area: RRT 1.76 [4, 15]: 0.43 % area

Structure (SMILES): CC(C)O.CN1CCc2cccc3c2C1Cc1ccc(O)c(O)c1-3 (centres unmarked) [A0513-94-03]
- % area: RRT 1.00 [4, 16]: 99.81 % area
- % area: RRT 1.25 [4, 16]: 0.13 % area
- % area: RRT 1.71 [4, 16]: 0.02 % area

Structure (SMILES): CN1CCc2cccc3c2C1Cc1ccc(O)c(O)c1-3 (centres unmarked) [A0513-98-02]
- % area: RRT 1.00 [4, 17]: 95.62 % area
- % area: RRT 1.09 [4, 17]: 1.25 % area
- % area: RRT 1.25 [4, 17]: 0.19 % area
- % area: RRT 1.29 [4, 17]: 0.61 % area
- % area: RRT 1.50 [4, 17]: 0.12 % area
- % area: RRT 1.71 [4, 17]: 0.45 % area
- % area: RRT 1.76 [4, 17]: 0.34 % area

Reference: patent US20170368052A1, “CRYSTAL FORMS OF APOMORPHINE AND USES THEREOF” (NeuroDerm, Ltd., priority 2014, published 2017)
